Assays:
ORYZA [1] = test: Pre-emergence effects on crop plants (Table D3); conditions: crop plant; application rate 80 g/ha; visual grading after ca. 3 weeks
Text: Seeds of mono- and dicotyledonous weed plants and crop plants were sown, in plastic or organic planting pots, in sandy loam and covered with soil. The compounds according to the invention, formulated in the form of wettable powders (WP) or as emulsifiable concentrates (EC), were applied to the surface of the covering soil as aqueous suspension or emulsion, with the addition of 0.5% of an additive, at an application rate of 600 1 of water/ha (converted).
Following treatment, the pots were placed in a greenhouse and kept under optimum growth conditions for the test plants.

VIOTR [2] = test: Herbicidal pre-emergence action, section C (Table C12); assay type: in vivo, Viola tricolor; conditions: application rate 80 g/ha; visual grading after ca. 3 weeks
POAAN [3] = test: Herbicidal pre-emergence action (Table A7); assay type: in vivo, Poa annua; conditions: application rate 320 g/ha; visual grading after ca. 3 weeks
How it was run: (§1)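 Seeds covered with soil after sowing in sandy loam; every pot carried one monocotyledonous and one dicotyledonous weed species as a double sowing.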

DIGSA [4] = test: Herbicidal post-emergence action (Table B12); assay type: in vivo, Digitaria sanguinalis; conditions: application rate 1280 g/ha
Protocol: Seeds of mono- and dicotyledonous weed plants were placed in plastic pots in sandy loam soil (doubly sown with in each case one species of mono- or dicotyledonous weed plants per pot), covered with soil and cultivated in a greenhouse under controlled growth conditions. 2 to 3 weeks after sowing, the test plants were treated at the one-leaf stage. […] After the test plants had been kept in the greenhouse under optimum growth conditions for about 3 weeks, the activity of the preparations was rated visually in comparison to untreated controls. For example, 100% activity = the plants have died, 0% activity = like control plants.

SETVI [5] = test: Herbicidal pre-emergence action, section C (Table C10); assay type: in vivo, Setaria viridis; conditions: application rate 320 g/ha; visual grading after ca. 3 weeks
Text: (§4) Seeds of mono- and dicotyledonous weed plants and crop plants were sown, in plastic or organic planting pots, in sandy loam and covered with soil. The compounds according to the invention, formulated in the form of wettable powders (WP) or as emulsifiable concentrates (EC), were applied to the surface of the covering soil as aqueous suspension or emulsion, with the addition of 0.5% of an additive, at an application rate of 600 1 of water/ha (converted). Following treatment, the pots were placed in a greenhouse and kept under optimum growth conditions for the test plants.

ABUTH [6] = test: Herbicidal post-emergence action (Table B1); assay type: in vivo, Abutilon theophrasti; conditions: treated at one-leaf stage, rated visually after about 3 weeks vs untreated controls (100% = plants have died, 0% = like control plants)
How it was run: (§2)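 Visual rating of activity versus untreated plants about 3 weeks after treatment: 0% means no difference from controls, 100% means complete kill. Test weeds were raised from seed in sandy loam under controlled greenhouse conditions and sprayed at the one-leaf stage.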

ECHCG [7] = test: Herbicidal pre-emergence action (Table A2); assay type: in vivo, Echinochloa crus-galli; conditions: application rate 320 g/ha; visual grading after ca. 3 weeks
How it was run: as §1

VERPE [8] = test: Herbicidal post-emergence action (Table B10); assay type: in vivo, Veronica persica; conditions: application rate 1280 g/ha
How it was run: as §2

ALOMY [9] = test: Herbicidal pre-emergence action, section C (Table C2); assay type: in vivo, Alopecurus myosuroides; conditions: visual grading after ca. 3 weeks
VERPE [10] = test: Herbicidal pre-emergence action, section C (Table C11); assay type: in vivo, Veronica persica; conditions: visual grading after ca. 3 weeks
ZEAMX [11] = test: Post-emergence effects on crop plants (Table F1); assay type: in vivo, Zea mays; conditions: application rate 320 g/ha, crop plant ZEAMX
Text: (§3) 2 to 3 weeks after sowing, the test plants were sprayed in the single-leaf stage.

AMARE [12] = test: Herbicidal post-emergence action (Table B11); assay type: in vivo, Amaranthus retroflexus; conditions: application rate 1280 g/ha
How it was run: as §2

STEME = test: Herbicidal pre-emergence action (Table A6); assay type: in vivo, Stellaria media; conditions: application rate 320 g/ha; visual grading after ca. 3 weeks
How it was run: as §1

SETVI [13] = test: Herbicidal pre-emergence action (Table A5); assay type: in vivo, Setaria viridis; conditions: visual grading after ca. 3 weeks
How it was run: as §1

TRZAS [14] = test: Post-emergence effects on crop plants (Table F2); assay type: in vivo, Triticum aestivum; conditions: application rate 320 g/ha, crop plant TRZAS
Text: as §3

KCHSC [15] = test: Herbicidal pre-emergence action (Table A10); assay type: in vivo, Kochia scoparia; conditions: application rate 320 g/ha; visual grading after ca. 3 weeks
How it was run: as §1

MATIN [16] = test: Herbicidal post-emergence action (Table B6); assay type: in vivo, Matricaria inodora; conditions: application rate 1280 g/ha; rated visually after about 3 weeks
How it was run: as §2

ALOMY [17] = test: Herbicidal pre-emergence action (Table A9); assay type: in vivo, Alopecurus myosuroides; conditions: application rate 1280 g/ha; visual grading after ca. 3 weeks
How it was run: as §1

ZEAMX [18] = test: Pre-emergence effects on crop plants (Table D1); assay type: in vivo, Zea mays; conditions: crop plant; application rate 80 g/ha; visual grading after ca. 3 weeks
ABUTH [19] = test: Herbicidal pre-emergence action, section C (Table C1); assay type: in vivo, Abutilon theophrasti; conditions: application rate 80 g/ha; visual grading after ca. 3 weeks
Text: as §4

LOLRI [20] = test: Herbicidal pre-emergence action (Table A3); assay type: in vivo, Lolium rigidum; conditions: application rate 320 g/ha; visual grading after ca. 3 weeks
How it was run: as §1

AMARE [21] = test: Herbicidal pre-emergence action (Table A8); assay type: in vivo, Amaranthus retroflexus; conditions: application rate 320 g/ha; visual grading after ca. 3 weeks vs untreated controls (100% = plants have died off, 0% = as control plants)
How it was run: as §1

SETVI [22] = test: Herbicidal post-emergence action (Table B8); assay type: in vivo, Setaria viridis
How it was run: as §2

KCHSC [23] = test: Herbicidal post-emergence action (Table B4); assay type: in vivo, Kochia scoparia; conditions: application rate 1280 g/ha; rated visually after about 3 weeks
How it was run: as §2

ABUTH [24] = test: Herbicidal pre-emergence action (Table A1); assay type: in vivo, Abutilon theophrasti; conditions: visual grading after ca. 3 weeks vs untreated controls (100% = plants have died off, 0% = as control plants)
How it was run: as §1

ECHCG [25] = test: Herbicidal pre-emergence action, section C (Table C6); assay type: in vivo, Echinochloa crus-galli; conditions: application rate 80 g/ha; visual grading after ca. 3 weeks
MATIN [26] = test: Herbicidal pre-emergence action, section C (Table C8); assay type: in vivo, Matricaria inodora; conditions: application rate 320 g/ha; visual grading after ca. 3 weeks
Text: as §4

AMARE [27] = test: Herbicidal pre-emergence action, section C (Table C3); assay type: in vivo, Amaranthus retroflexus; conditions: application rate 320 g/ha; visual grading after ca. 3 weeks
Text: as §4

DIGSA [28] = test: Herbicidal pre-emergence action, section C (Table C5); assay type: in vivo, Digitaria sanguinalis; conditions: application rate 80 g/ha; visual grading after ca. 3 weeks
GLXMA [29] = test: Post-emergence effects on crop plants (Table F4); assay type: in vivo, Glycine max; conditions: crop plant GLXMA
Text: as §3

MATIN [30] = test: Herbicidal pre-emergence action (Table A4); assay type: in vivo, Matricaria inodora; conditions: visual grading after ca. 3 weeks
How it was run: as §1

DIGSA [31] = test: Herbicidal pre-emergence action (Table A12); assay type: in vivo, Digitaria sanguinalis; conditions: application rate 320 g/ha; visual grading after ca. 3 weeks
How it was run: as §1

POLCO = test: Herbicidal pre-emergence action, section C (Table C9); assay type: in vivo, Polygonum convolvulus; conditions: application rate 80 g/ha; visual grading after ca. 3 weeks
POAAN [32] = test: Herbicidal post-emergence action (Table B7); assay type: in vivo, Poa annua; conditions: application rate 1280 g/ha
How it was run: as §2

LOLRI [33] = test: Herbicidal pre-emergence action, section C (Table C7); assay type: in vivo, Lolium rigidum; conditions: application rate 320 g/ha; visual grading after ca. 3 weeks
VERPE [34] = test: Herbicidal pre-emergence action (Table A11); assay type: in vivo, Veronica persica; conditions: application rate 1280 g/ha; visual grading after ca. 3 weeks
How it was run: as §1

ECHCG [35] = test: Herbicidal post-emergence action (Table B3); assay type: in vivo, Echinochloa crus-galli; conditions: rated visually after about 3 weeks
How it was run: as §2

ORYZA [36] = test: Post-emergence effects on crop plants (Table F3); assay type: in vivo, Oryza sativa; conditions: application rate 320 g/ha, crop plant ORYZA
Text: as §3

VERPE [37] = test: Herbicidal post-emergence action, section E (Table E9); assay type: in vivo, Veronica persica; conditions: application rate 320 g/ha; assessed visually after ca. 3 weeks
Text: as §3

VIOTR [38] = test: Herbicidal post-emergence action, section E (Table E10); assay type: in vivo, Viola tricolor; conditions: application rate 320 g/ha; assessed visually after ca. 3 weeks
Text: as §3

LOLRI [39] = test: Herbicidal post-emergence action (Table B5); assay type: in vivo, Lolium rigidum; conditions: application rate 1280 g/ha; rated visually after about 3 weeks
How it was run: as §2

GLXMA [40] = test: Pre-emergence effects on crop plants (Table D4); assay type: in vivo, Glycine max; conditions: crop plant; application rate 320 g/ha; visual grading after ca. 3 weeks
TRZAS [41] = test: Pre-emergence effects on crop plants (Table D2); assay type: in vivo, Triticum aestivum; conditions: crop plant; application rate 80 g/ha; visual grading after ca. 3 weeks
ABUTH [42] = test: Herbicidal post-emergence action, section E (Table E1); assay type: in vivo, Abutilon theophrasti; conditions: application rate 320 g/ha; assessed visually after ca. 3 weeks
Text: as §3

O=C1N(Cc2ccccc2F)CCCC12CCN(Cc1cccc(F)c1F)C2=O (racemic) [I-016]
pre-emergence activity against ORYZA (ORYZA [1]): 0% | pre-emergence activity against VIOTR (VIOTR [2]): 90% | pre-emergence activity against POAAN (POAAN [3]): 100% | post-emergence activity against DIGSA (DIGSA [4]): 90% | pre-emergence activity against SETVI (SETVI [5]): 100% | post-emergence activity against ABUTH (ABUTH [6]; application rate 320 g/ha): 90% | pre-emergence activity against ECHCG (ECHCG [7]): 100% | post-emergence activity against VERPE (VERPE [8]): 90% | pre-emergence activity against ALOMY (ALOMY [9]; application rate 80 g/ha): 90% | pre-emergence activity against VERPE (VERPE [10]; application rate 320 g/ha): 90% | post-emergence activity against ZEAMX (ZEAMX [11]): 0% | post-emergence activity against AMARE (AMARE [12]): 90% | pre-emergence activity against STEME (STEME): 90% | pre-emergence activity against SETVI (SETVI [13]; application rate 320 g/ha): 100% | post-emergence activity against TRZAS (TRZAS [14]): 0% | pre-emergence activity against KCHSC (KCHSC [15]): 90% | post-emergence activity against MATIN (MATIN [16]): 90% | pre-emergence activity against ALOMY (ALOMY [17]): 90% | pre-emergence activity against ZEAMX (ZEAMX [18]): 0% | pre-emergence activity against ABUTH (ABUTH [19]): 80% | pre-emergence activity against LOLRI (LOLRI [20]): 100% | pre-emergence activity against AMARE (AMARE [21]): 90% | post-emergence activity against SETVI (SETVI [22]; application rate 320 g/ha): 90% | post-emergence activity against KCHSC (KCHSC [23]): 90% | pre-emergence activity against ABUTH (ABUTH [24]; application rate 320 g/ha): 90% | pre-emergence activity against ECHCG (ECHCG [25]): 100% | pre-emergence activity against MATIN (MATIN [26]): 90% | pre-emergence activity against AMARE (AMARE [27]): 90% | pre-emergence activity against DIGSA (DIGSA [28]): 100% | post-emergence activity against GLXMA (GLXMA [29]; application rate 80 g/ha): 0% | pre-emergence activity against MATIN (MATIN [30]; application rate 320 g/ha): 90% | pre-emergence activity against DIGSA (DIGSA [31]): 100% | pre-emergence activity against POLCO (POLCO): 90% | post-emergence activity against POAAN (POAAN [32]): 90% | pre-emergence activity against LOLRI (LOLRI [33]): 100% | pre-emergence activity against VERPE (VERPE [34]): 90% | post-emergence activity against ECHCG (ECHCG [35]; application rate 320 g/ha): 90% | post-emergence activity against ORYZA (ORYZA [36]): 0%

O=C1N(Cc2c(F)cccc2F)CCCC12CCN(Cc1c(F)cccc1F)C2=O (racemic) [I-037]
pre-emergence activity against ORYZA (ORYZA [1]): 0% | post-emergence activity against VERPE (VERPE [37]): 80% | post-emergence activity against VIOTR (VIOTR [38]): 80% | pre-emergence activity against VIOTR (VIOTR [2]): 90% | pre-emergence activity against POAAN (POAAN [3]): 100% | pre-emergence activity against SETVI (SETVI [5]): 100% | post-emergence activity against ABUTH (ABUTH [6]; application rate 1280 g/ha): 90% | pre-emergence activity against ECHCG (ECHCG [7]): 100% | pre-emergence activity against ALOMY (ALOMY [9]; application rate 320 g/ha): 100% | pre-emergence activity against VERPE (VERPE [10]; application rate 80 g/ha): 90% | post-emergence activity against ZEAMX (ZEAMX [11]): 0% | pre-emergence activity against STEME (STEME): 90% | post-emergence activity against LOLRI (LOLRI [39]): 90% | pre-emergence activity against SETVI (SETVI [13]; application rate 1280 g/ha): 100% | post-emergence activity against TRZAS (TRZAS [14]): 0% | pre-emergence activity against KCHSC (KCHSC [15]): 90% | post-emergence activity against MATIN (MATIN [16]): 90% | pre-emergence activity against ALOMY (ALOMY [17]): 90% | pre-emergence activity against ZEAMX (ZEAMX [18]): 0% | pre-emergence activity against LOLRI (LOLRI [20]): 100% | post-emergence activity against SETVI (SETVI [22]; application rate 1280 g/ha): 90% | pre-emergence activity against GLXMA (GLXMA [40]): 20% | pre-emergence activity against ABUTH (ABUTH [24]; application rate 1280 g/ha): 100% | pre-emergence activity against MATIN (MATIN [26]): 80% | pre-emergence activity against DIGSA (DIGSA [28]): 100% | post-emergence activity against GLXMA (GLXMA [29]; application rate 320 g/ha): 0% | pre-emergence activity against TRZAS (TRZAS [41]): 0% | pre-emergence activity against MATIN (MATIN [30]; application rate 1280 g/ha): 90% | pre-emergence activity against DIGSA (DIGSA [31]): 100% | pre-emergence activity against LOLRI (LOLRI [33]): 100% | pre-emergence activity against VERPE (VERPE [34]): 90% | post-emergence activity against ABUTH (ABUTH [42]): 80% | post-emergence activity against ECHCG (ECHCG [35]; application rate 1280 g/ha): 90% | post-emergence activity against ORYZA (ORYZA [36]): 0%

Reference: patent EP4273147A1, “SUBSTITUTED SPIROLACTAMS, SALTS THEREOF AND THEIR USE AS HERBICIDALLY ACTIVE SUBSTANCES” (Bayer Aktiengesellschaft, priority 2022, dated 2023)
